Assay results: patent US6395728B2, “Method of treatment and pharmaceutical composition” (Novartis AG, priority 1999, dated 2002)

System: diabetic SHRs
Test: Survival of streptozotocin-induced diabetic SHRs under drug treatment
Type: in vivo, rat
Conditions: week 21 of treatment
Description: Diabetes is induced in SHRs aged about 6 to 8 weeks weighing about 250 to 300 g by treatment e.g. with streptozotocin. The drugs are administered by twice daily average. Untreated diabetic SHRs are used as control group (group 1). Other groups of diabetic SHRs are treated with 30 mg/kg of valsartan (group 2), with 20 mg/kg of verapamil (group 3) and with a combination of 20 mg/kg of valsartan and 15 mg/kg of verapamil (group 4). On a regular basis, besides other parameters the survival rate after 21 weeks of treatment is being monitored.

Row | SMILES | Survival Rate (30 mg/kg of valsartan (group 2)) | Survival Rate (20 mg/kg of verapamil (group 3))
1 | CCCCC(=O)N(Cc1ccc(-c2ccccc2-c2nnn[nH]2)cc1)[C@H](C(=O)O)C(C)C [valsartan, (S)-N-(1-carboxy-2-methyl-prop-1-yl)-N-pentanoyl-N-[2′(1H-tetrazol-5-yl)biphenyl-4-yl-methyl]amine] | 45.9% | 
2 | COc1ccc(CCN(C)CCCC(C#N)(c2ccc(OC)c(OC)c2)C(C)C)cc1OC (centres unmarked) [verapamil] |  | 42.9%
